Laboratory results reported in patent US20250361230A1, “LATS Inhibitors and Uses Thereof” (The USA, as Represented by the Secretary, Dept. of Heath …, priority 2022, published 2025).
Like-named read-outs stand apart in the source and are kept apart here. One block for each compound: values may come before it.

Columns and labels:
Format in all cases: biochemical
[1] = target: T1, LATS2 (Homo sapiens, UniProt Q9NRM7); experiment: RBC HotSpot kinase assay (33P-ATP, P81 filter-binding), LATS2
T1 sequence (Q9NRM7 1-1088): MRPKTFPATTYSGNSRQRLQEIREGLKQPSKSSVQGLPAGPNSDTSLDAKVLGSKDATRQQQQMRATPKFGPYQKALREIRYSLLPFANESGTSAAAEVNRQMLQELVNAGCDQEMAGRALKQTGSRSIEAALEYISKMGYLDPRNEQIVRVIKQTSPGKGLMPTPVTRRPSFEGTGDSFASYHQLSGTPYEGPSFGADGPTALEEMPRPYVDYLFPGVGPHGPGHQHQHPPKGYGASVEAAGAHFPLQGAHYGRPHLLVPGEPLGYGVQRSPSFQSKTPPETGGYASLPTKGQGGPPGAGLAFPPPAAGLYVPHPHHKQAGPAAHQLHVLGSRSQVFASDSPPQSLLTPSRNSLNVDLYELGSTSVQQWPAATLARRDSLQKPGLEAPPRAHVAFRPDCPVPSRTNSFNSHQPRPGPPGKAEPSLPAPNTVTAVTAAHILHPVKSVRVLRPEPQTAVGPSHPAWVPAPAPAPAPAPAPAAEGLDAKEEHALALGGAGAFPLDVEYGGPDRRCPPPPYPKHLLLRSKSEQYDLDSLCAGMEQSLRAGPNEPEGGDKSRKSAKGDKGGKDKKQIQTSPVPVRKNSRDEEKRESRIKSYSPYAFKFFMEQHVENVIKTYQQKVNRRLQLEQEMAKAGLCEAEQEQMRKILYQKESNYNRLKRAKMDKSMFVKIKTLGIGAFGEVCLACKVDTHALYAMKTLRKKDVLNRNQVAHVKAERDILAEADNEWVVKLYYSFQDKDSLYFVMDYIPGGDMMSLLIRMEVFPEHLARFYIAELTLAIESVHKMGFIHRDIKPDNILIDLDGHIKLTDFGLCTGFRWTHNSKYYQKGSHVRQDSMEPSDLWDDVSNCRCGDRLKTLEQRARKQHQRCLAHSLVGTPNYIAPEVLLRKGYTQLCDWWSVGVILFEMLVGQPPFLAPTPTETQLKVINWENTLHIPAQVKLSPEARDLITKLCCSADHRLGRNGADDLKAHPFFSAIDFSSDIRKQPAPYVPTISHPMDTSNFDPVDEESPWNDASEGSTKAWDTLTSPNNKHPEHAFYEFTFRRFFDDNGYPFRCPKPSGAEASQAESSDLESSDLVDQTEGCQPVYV
Procedure, shortened: (§1)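 Radiometric 33P-ATP kinase reaction in 20 mM Hepes pH 7.5, 10 mM MgCl2, 1 mM EGTA, 0.01% Brij35, 0.02 mg/ml BSA, 0.1 mM Na3VO4, 2 mM DTT, 1% DMSO. Compound preincubated with kinase and substrate 20 min, then 2 h at room temperature; P81 filter-binding read-out. IC50 (nM) from 10-point singlet curves.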

[2] = target: T2, LATS1 (Homo sapiens, UniProt O95835); experiment: RBC HotSpot kinase assay (33P-ATP, P81 filter-binding), LATS1
T2 sequence (O95835 1-1130): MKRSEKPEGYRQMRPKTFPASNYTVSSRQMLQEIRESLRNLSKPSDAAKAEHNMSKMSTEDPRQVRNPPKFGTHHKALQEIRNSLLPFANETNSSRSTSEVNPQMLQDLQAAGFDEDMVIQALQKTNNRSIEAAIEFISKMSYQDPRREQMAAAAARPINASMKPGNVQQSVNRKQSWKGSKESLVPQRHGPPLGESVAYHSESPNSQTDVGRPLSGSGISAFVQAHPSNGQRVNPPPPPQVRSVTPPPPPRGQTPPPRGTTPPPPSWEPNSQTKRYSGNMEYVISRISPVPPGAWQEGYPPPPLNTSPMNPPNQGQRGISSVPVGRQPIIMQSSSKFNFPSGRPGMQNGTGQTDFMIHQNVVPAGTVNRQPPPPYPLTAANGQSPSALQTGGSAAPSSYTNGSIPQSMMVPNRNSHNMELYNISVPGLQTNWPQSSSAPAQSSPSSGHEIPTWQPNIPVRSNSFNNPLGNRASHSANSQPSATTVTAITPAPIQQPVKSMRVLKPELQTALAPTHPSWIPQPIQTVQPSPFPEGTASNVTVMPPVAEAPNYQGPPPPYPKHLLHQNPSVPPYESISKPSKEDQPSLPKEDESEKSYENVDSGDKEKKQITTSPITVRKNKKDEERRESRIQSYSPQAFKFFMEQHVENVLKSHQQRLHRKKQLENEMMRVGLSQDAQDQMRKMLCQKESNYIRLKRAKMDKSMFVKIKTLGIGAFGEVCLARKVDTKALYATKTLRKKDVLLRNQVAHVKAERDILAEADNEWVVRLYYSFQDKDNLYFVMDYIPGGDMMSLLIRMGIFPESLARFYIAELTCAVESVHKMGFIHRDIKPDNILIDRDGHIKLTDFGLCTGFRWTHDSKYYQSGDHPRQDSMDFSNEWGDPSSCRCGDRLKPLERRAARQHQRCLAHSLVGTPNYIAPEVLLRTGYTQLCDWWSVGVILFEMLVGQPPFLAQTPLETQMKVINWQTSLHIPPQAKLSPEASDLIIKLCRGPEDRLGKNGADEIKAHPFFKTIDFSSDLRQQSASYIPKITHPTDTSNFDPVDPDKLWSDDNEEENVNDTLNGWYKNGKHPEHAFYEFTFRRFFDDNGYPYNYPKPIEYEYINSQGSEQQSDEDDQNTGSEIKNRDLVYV
Procedure, shortened: as §1

[3] = target: AKT (Homo sapiens, UniProt P31749); experiment: RBC HotSpot kinase assay (33P-ATP, P81 filter-binding), AKT
Sequence of AKT (P31749 whole entry): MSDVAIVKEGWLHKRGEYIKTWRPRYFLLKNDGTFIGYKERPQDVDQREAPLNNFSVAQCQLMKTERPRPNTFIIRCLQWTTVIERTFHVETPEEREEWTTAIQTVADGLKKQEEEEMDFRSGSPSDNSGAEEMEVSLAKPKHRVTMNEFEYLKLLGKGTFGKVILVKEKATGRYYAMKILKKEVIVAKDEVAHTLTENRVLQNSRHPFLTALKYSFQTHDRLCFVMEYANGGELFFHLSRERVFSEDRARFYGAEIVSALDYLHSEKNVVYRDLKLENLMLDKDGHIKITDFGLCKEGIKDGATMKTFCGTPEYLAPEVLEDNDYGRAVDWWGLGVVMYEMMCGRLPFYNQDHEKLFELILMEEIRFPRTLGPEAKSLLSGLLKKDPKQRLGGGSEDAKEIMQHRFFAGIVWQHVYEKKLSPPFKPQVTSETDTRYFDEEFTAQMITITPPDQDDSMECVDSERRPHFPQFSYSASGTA
Procedure, shortened: as §1

[4] = Table 28, biochemical kinase assay, read-out: LATS2 IC50
[5] = Table 28, biochemical kinase assay, read-out: LATS1 IC50
[6] = Table 28, biochemical kinase assay, read-out: AKT IC50

SMILES: Cc1cc(-c2ccnc3[nH]cc(F)c23)cc(F)c1C1(O)CC2(CNC2)C1 [Compound 108, 6-(2-fluoro-4-(3-fluoro-1H-pyrrolo[2,3-b]pyridin-4-yl)-6-methylphenyl)-2-azaspiro[3.3]heptan-6-ol]
- IC50 [1, 4]: 24.8 nM
- IC50 [2, 5]: 17.4 nM
- IC50 [3, 6]: 1270 nM

SMILES: OC1(c2c(F)cc(-c3ccnc4[nH]cc(F)c34)cc2F)CC2(CNC2)C1 [Compound 109, 6-(2,6-difluoro-4-(3-fluoro-1H-pyrrolo[2,3-b]pyridin-4-yl)phenyl)-2-azaspiro[3.3]heptan-6-ol]
- IC50 [1, 4]: 61 nM
- IC50 [2, 5]: 46 nM
- IC50 [3, 6]: 2980 nM

SMILES: COC(=O)c1c[nH]c2nccc(-c3ccc(C4(O)CCNCC4)cc3)c12 [Compound 112, methyl 4-(4-(4-hydroxypiperidin-4-yl)phenyl)-1H-pyrrolo[2,3-b]pyridine-3-carboxylate]
- IC50 [1, 4]: 18 nM
- IC50 [2, 5]: 9.2 nM
- IC50 [3, 6]: 2330 nM

SMILES: COC(=O)c1c[nH]c2nccc(-c3ccc(C4(O)C[C@H]5CC[C@@H](C4)N5)cc3)c12 (stereo partly drawn) [Compound 113, methyl 4-(4-((1R,5S)-3-hydroxy-8-azabicyclo[3.2.1]octan-3-yl)phenyl)-1H-pyrrolo[2,3-b]pyridine-3-carboxylate]
- IC50 [1, 4]: 65.5 nM
- IC50 [2, 5]: 12.4 nM
- IC50 [3, 6]: 1060 nM

SMILES: OC1(c2ccc(-c3ccnc4[nH]cc(F)c34)cc2)C[C@H]2CC[C@@H](C1)N2 (stereo partly drawn) [Compound 114, (1R,5S)-3-(4-(3-fluoro-1H-pyrrolo[2,3-b]pyridin-4-yl)phenyl)-8-azabicyclo[3.2.1]octan-3-ol]
- IC50 [1, 4]: 19 nM
- IC50 [2, 5]: 23 nM
- IC50 [3, 6]: 390 nM

SMILES: OC1(c2ccc(-c3ccnc4[nH]ccc34)cc2)C[C@H]2CC[C@@H](C1)N2 (stereo partly drawn) [Compound 115, (1R,5S)-3-(4-(1H-pyrrolo[2,3-b]pyridin-4-yl)phenyl)-8-azabicyclo[3.2.1]octan-3-ol]
- IC50 [1, 4]: 10 nM
- IC50 [2, 5]: 7.2 nM
- IC50 [3, 6]: 176 nM

SMILES: OC1(c2ccc(-c3ccnc4[nH]cc(F)c34)cc2)CNC1 [Compound 116, 3-(4-(3-fluoro-1H-pyrrolo[2,3-b]pyridin-4-yl)phenyl)azetidin-3-ol]
- IC50 [1, 4]: 16.7 nM
- IC50 [2, 5]: 9.2 nM
- IC50 [3, 6]: 468 nM

SMILES: OC1(c2ccc(-c3ccnc4[nH]cc(Br)c34)cc2)CCNCC1 [Compound 117, 4-(4-(3-bromo-1H-pyrrolo[2,3-b]pyridin-4-yl)phenyl)piperidin-4-ol]
- IC50 [1, 4]: 3.2 nM
- IC50 [2, 5]: 4.2 nM
- IC50 [3, 6]: 240 nM

SMILES: OC1(c2ccc(-c3ccnc4[nH]cc(Br)c34)cc2)C[C@H]2CC[C@@H](C1)N2 (stereo partly drawn) [Compound 118, (1R,5S)-3-(4-(3-bromo-1H-pyrrolo[2,3-b]pyridin-4-yl)phenyl)-8-azabicyclo[3.2.1]octan-3-ol]
- IC50 [1, 4]: 0.9 nM
- IC50 [2, 5]: 1.8 nM
- IC50 [3, 6]: 14 nM

SMILES: OC1(c2ccc(-c3ccnc4[nH]cc(Br)c34)nc2)C[C@H]2CC[C@@H](C1)N2 (stereo partly drawn) [Compound 119, (1R,5S)-3-(6-(3-bromo-1H-pyrrolo[2,3-b]pyridin-4-yl)pyridin-3-yl)-8-azabicyclo[3.2.1]octan-3-ol]
- IC50 [1]: 184 nM
- IC50 [2]: 29.8 nM
- IC50 [3]: 2590 nM

SMILES: CC1CC(O)(c2ccc(-c3ccnc4[nH]cc(Br)c34)cc2Cl)CC(C)N1 (stereo not drawn) [Compound 120, 4-(4-(3-bromo-1H-pyrrolo[2,3-b]pyridin-4-yl)-2-chlorophenyl)-2,6-dimethylpiperidin-4-ol]
- IC50 [1, 4]: 30 nM
- IC50 [2, 5]: 58 nM
- IC50 [3, 6]: 103 nM

SMILES: OC1(c2ccc(-c3ccnc4[nH]cc(Br)c34)cc2Cl)C2CNCC1C2 (stereo not drawn) [Compound 121, 6-(4-(3-bromo-1H-pyrrolo[2,3-b]pyridin-4-yl)-2-chlorophenyl)-3-azabicyclo[3.1.1]heptan-6-ol]
- IC50 [1, 4]: 14.6 nM
- IC50 [2, 5]: 10.2 nM
- IC50 [3, 6]: 307 nM

Next, values leading:

- IC50 [1, 4]: 8.9 nM
- IC50 [2, 5]: 5.3 nM
- IC50 [3, 6]: 51.2 nM
SMILES: OC1(c2ccc(-c3ccnc4[nH]cc(Br)c34)cc2Cl)C[C@H]2CC[C@@H](C1)N2 (stereo partly drawn) [Compound 122, (1R,5S)-3-(4-(3-bromo-1H-pyrrolo[2,3-b]pyridin-4-yl)-2-chlorophenyl)-8-azabicyclo[3.2.1]octan-3-ol]

- IC50 [1, 4]: 7 nM
- IC50 [2, 5]: 12 nM
- IC50 [3, 6]: 158 nM
SMILES: OC1(c2ccc(-c3ccnc4[nH]cc(Br)c34)cc2Cl)CNC1 [Compound 123, 3-(4-(3-bromo-1H-pyrrolo[2,3-b]pyridin-4-yl)-2-chlorophenyl)azetidin-3-ol]

- IC50 [1, 4]: 3.7 nM
- IC50 [2, 5]: 5.7 nM
- IC50 [3, 6]: 128 nM
SMILES: CN1CCC(O)(c2ccc(-c3ccnc4[nH]cc(Br)c34)cc2)CC1 [Compound 124, 4-(4-(3-bromo-1H-pyrrolo[2,3-b]pyridin-4-yl)phenyl)-1-methylpiperidin-4-ol]

- IC50 [1, 4]: 7 nM
- IC50 [2, 5]: 14.1 nM
- IC50 [3, 6]: 108 nM
SMILES: CC1CN(C)CC(C)C1(O)c1ccc(-c2ccnc3[nH]cc(Br)c23)cc1Cl (stereo not drawn) [Compound 125, 4-(4-(3-bromo-1H-pyrrolo[2,3-b]pyridin-4-yl)-2-chlorophenyl)-1,3,5-trimethylpiperidin-4-ol]

- IC50 [1, 4]: 32 nM
- IC50 [2, 5]: 9.1 nM
- IC50 [3, 6]: 245 nM
SMILES: OC1(c2ccc(-c3ccnc4[nH]cc(-c5cccnc5)c34)cc2)CCNCC1 [Compound 126, 4-(4-(3-(pyridin-3-yl)-1H-pyrrolo[2,3-b]pyridin-4-yl)phenyl)piperidin-4-ol]

- IC50 [1, 4]: 40 nM
- IC50 [2, 5]: 19 nM
- IC50 [3, 6]: 4300 nM
SMILES: Cc1cncc(-c2c[nH]c3nccc(-c4ccc(C5(O)CCNCC5)cc4)c23)c1 [Compound 127, 4-(4-(3-(5-methylpyridin-3-yl)-1H-pyrrolo[2,3-b]pyridin-4-yl)phenyl)piperidin-4-ol]

- IC50 [1, 4]: 36 nM
- IC50 [2, 5]: 31 nM
- IC50 [3, 6]: 2050 nM
SMILES: CN1CCC(O)(c2ccc(-c3ccnc4[nH]cc(-c5cccnc5)c34)cc2)CC1 [Compound 128, 1-methyl-4-(4-(3-(pyridin-3-yl)-1H-pyrrolo[2,3-b]pyridin-4-yl)phenyl)piperidin-4-ol]

- IC50 [1, 4]: 190 nM
- IC50 [2, 5]: 157 nM
- IC50 [3, 6]: 233 nM
SMILES: CC1CN(C)CC(C)C1(O)c1ccc(-c2ccnc3[nH]cc(F)c23)cc1-c1ccccc1 (stereo not drawn) [Compound 129, 4-(5-(3-fluoro-1H-pyrrolo[2,3-b]pyridin-4-yl)-[1,1′-biphenyl]-2-yl)-1,3,5-trimethylpiperidin-4-ol]

- IC50 [1, 4]: 381 nM
- IC50 [2, 5]: 146 nM
- IC50 [3, 6]: 2260 nM
SMILES: C[C@@H]1CNC[C@H](C)C1(O)c1cnc(-c2ccnc3[nH]cc(F)c23)cc1-c1ccccc1 (stereo partly drawn) [Compound 130, (3S,5R)-4-(6-(3-fluoro-1H-pyrrolo[2,3-b]pyridin-4-yl)-4-phenylpyridin-3-yl)-3,5-dimethylpiperidin-4-ol]
